Key:
[1] = tested on: rats; conditions: administered every day for 52 weeks at 1,200 mg/kg/day (Williams et al. 1999); cited from earlier work
[2] = tested on: Aging-accelerated model mice (SAMP1); test: Aging preventing (retarding) effect in aging-accelerated model mice, aging degree score; format: in vivo; conditions: SAMP1 female mice, about 150 to 250 mg/kg/day; for aging degree score (increase): feed containing 0.2% test substance, versus control feed, FIG. 1 / FIG. 2
Text: In evaluating such antiaging effects, for example, aging-accelerated model mice, can be used as an in vivo evaluation model. This mouse is a model mouse discovered and bred at Kyoto University, Japan, which develops the state of aging early and markedly.
Aging-accelerated model mice (SAMP1, 3-week-old females) were allowed free access to a feed (CE-2, product of CLEA Japan, Inc.) containing 0.2% reduced coenzyme Q10 (containing about 1% of oxidized coenzyme Q10) obtained in Production Example 1, and the aging degree of each mouse was quantified with time according to the aging degree score mentioned below. The dose of reduced coenzyme Q10 as estimated from the feed consumption and animal weight corresponded to about 150 to 250 mg/kg/day. A control group was given the feed alone (CE-2, product of CLEA Japan, Inc.).
The aging-accelerated model mice used were model mice discovered and bred at Kyoto University which develop the state of aging early and markedly. These mice show the state of aging quite similar to that of humans, and are useful model animals for in vivo testing for antiaging effects. The aging degree scoring system employed was the scoring system established by the Council for SAM Research. Thus, scores of 0 to 4 were given to each animal with respect to each of the following 11 items: 1: decrease in activity (searching behavior), 2: decrease in passivity (pinching escaping behavior), 3: loss of hair luster, 4: roughening of hair, 5: loss of hair, 6: skin ulcer, 7: periophthalmic lesions (blepharitis and periophthalmic erosion), 8: corneal clouding, 9: corneal ulcer, 10: cataract, 11: increased anterior or backward spinal curvature. The conditions found in a group of young mice about 3 months of age were taken as standards and given the score 0 (zero). Thus, a higher score indicates more advanced aging.
The test of Example 1 was performed in the same manner except that oxidized coenzyme Q10 was used in lieu of reduced coenzyme Q10. […]

[3] = in vitro; cited from earlier work

SMILES | toxic effect [1] | aging degree score (increase) [2] | aging preventing effect compared with reduced coenzyme Q10 ([2]; feed, FIG. 2 vs FIG. 1) | antioxidant activity [3]
COC1=C(OC)C(=O)C(C/C=C(\C)CC/C=C(\C)CC/C=C(\C)CC/C=C(\C)CC/C=C(\C)CC/C=C(\C)CC/C=C(\C)CC/C=C(\C)CC/C=C(\C)CCC=C(C)C)=C(C)C1=O [coenzyme Q10] | no toxic effect | – | – | –
COC1=C(OC)C(=O)C(C/C=C(\C)CC/C=C(\C)CC/C=C(\C)CC/C=C(\C)CC/C=C(\C)CC/C=C(\C)CC/C=C(\C)CC/C=C(\C)CC/C=C(\C)CCC=C(C)C)=C(C)C1=O [oxidized coenzyme Q10] | – | suppressed to a certain extent | weak | does not show antioxidant activity
COc1c(O)c(C)c(C/C=C(\C)CC/C=C(\C)CC/C=C(\C)CC/C=C(\C)CC/C=C(\C)CC/C=C(\C)CC/C=C(\C)CC/C=C(\C)CC/C=C(\C)CCC=C(C)C)c(O)c1OC [reduced coenzyme Q10] | – | distinctly prevented from increasing | – | shows antioxidant activity

From US20050154066A1, “Antiaging composition” (KANEKA CORPORATION, priority 2004, published 2005)
